Values of other authors as cited in patent publication US10835538B2, “Method of treating benign prostatic hyperlasia with antibiotics” (Nymox Corporation, priority 2018, dated 2020).

CC(COc1ccccc1)N(CCCl)Cc1ccccc1 (centres unmarked) [phenoxybenzamine]
Cases treated in which side effects cannot be tolerated and therapy has to be abandoned (human, in vivo): about 10%
Patients treated for BPH in whom side effects are present (hypotension, dizziness, faintness, tachycardia, weakness, retrograde or absent ejaculation): approximately 30%
